Data as given in the supplement of paper PMC5662764.
± gives the standard deviation of the averaged measurements.

Assays:
Assay in all cases: normalised growth rate inhibition (GR value) relative to DMSO control (GR (1 = untreated growth, 0 = cytostasis, <0 = cytotoxic)); higher = less growth inhibition
Conditions in all cases: 72 h
BT20 = tested on: BT20
Description: (§1)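 Breast cancer cell lines (BT-20, Hs 578T, MCF 10A, MCF7, MDA-MB-231, SK-BR-3) were plated in 384-well plates and treated 24 h later with drugs at six concentrations (0.04-10 µM). Viable cells were counted by Hoechst/dead-cell-stain imaging at 0 and 72 h. Counts were normalised to DMSO controls on the same plate to give the relative cell count and the growth-rate inhibition (GR) value; technical plate triplicates were averaged for each biological replicate.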

HS578T = tested on: HS578T
Description: as §1

MCF10A = tested on: MCF10A
Description: as §1

MCF7 = tested on: MCF7
Description: as §1

MDAMB231 = tested on: MDAMB231
Description: as §1

SKBR3 = tested on: SKBR3
Description: as §1

SMILES	normalised growth rate inhibition (BT20; 0.04 µM)	normalised growth rate inhibition (BT20; 0.12 µM)	normalised growth rate inhibition (BT20; 0.37 µM)	normalised growth rate inhibition (BT20; 1.11 µM)	normalised growth rate inhibition (BT20; 3.33 µM)	normalised growth rate inhibition (BT20; 10 µM)	normalised growth rate inhibition (HS578T; 0.04 µM)	normalised growth rate inhibition (HS578T; 0.12 µM)	normalised growth rate inhibition (HS578T; 0.37 µM)	normalised growth rate inhibition (HS578T; 1.11 µM)	normalised growth rate inhibition (HS578T; 3.33 µM)	normalised growth rate inhibition (HS578T; 10 µM)	normalised growth rate inhibition (MCF10A; 0.04 µM)	normalised growth rate inhibition (MCF10A; 0.12 µM)	normalised growth rate inhibition (MCF10A; 0.37 µM)	normalised growth rate inhibition (MCF10A; 1.11 µM)	normalised growth rate inhibition (MCF10A; 3.33 µM)	normalised growth rate inhibition (MCF10A; 10 µM)	normalised growth rate inhibition (MCF7; 0.04 µM)	normalised growth rate inhibition (MCF7; 0.12 µM)	normalised growth rate inhibition (MCF7; 0.37 µM)	normalised growth rate inhibition (MCF7; 1.11 µM)	normalised growth rate inhibition (MCF7; 3.33 µM)	normalised growth rate inhibition (MCF7; 10 µM)	normalised growth rate inhibition (MDAMB231; 0.04 µM)	normalised growth rate inhibition (MDAMB231; 0.12 µM)	normalised growth rate inhibition (MDAMB231; 0.37 µM)	normalised growth rate inhibition (MDAMB231; 1.11 µM)	normalised growth rate inhibition (MDAMB231; 3.33 µM)	normalised growth rate inhibition (MDAMB231; 10 µM)	normalised growth rate inhibition (SKBR3; 0.04 µM)	normalised growth rate inhibition (SKBR3; 0.12 µM)	normalised growth rate inhibition (SKBR3; 0.37 µM)	normalised growth rate inhibition (SKBR3; 1.11 µM)	normalised growth rate inhibition (SKBR3; 3.33 µM)	normalised growth rate inhibition (SKBR3; 10 µM)
Cc1ncc(-c2ccnc(Nc3ccc(S(C)(=O)=O)cc3)n2)n1C(C)C [AZD-5438]	0.884 ± 0.086	0.655 ± 0.14	0.354 ± 0.2	0.0675 ± 0.11	-0.117 ± 0.1	-0.372 ± 0.15	0.908 ± 0.037	0.679 ± 0.063	0.274 ± 0.069	-0.0129 ± 0.054	-0.104 ± 0.095	-0.186 ± 0.093	0.958 ± 0.02	0.797 ± 0.087	0.42 ± 0.18	-0.0201 ± 0.058	-0.199 ± 0.24	-0.188 ± 0.19	0.798 ± 0.13	0.373 ± 0.11	0.0311 ± 0.046	-0.106 ± 0.11	-0.277 ± 0.036	-0.438 ± 0.14	0.849 ± 0.1	0.633 ± 0.069	0.31 ± 0.071	-0.0453 ± 0.074	-0.205 ± 0.15	-0.308 ± 0.18	0.891 ± 0.036	0.628 ± 0.013	0.292 ± 0.086	-0.137 ± 0.12	-0.28 ± 0.15	-0.453 ± 0.2
Cc1cc([C@@H](C)Nc2ccccc2C(=O)O)c2nc(N3CCOCC3)cc(=O)n2c1 [AZD-6482]	0.974 ± 0.05	0.895 ± 0.079	0.758 ± 0.059	0.52 ± 0.078	0.245 ± 0.08	-0.0918 ± 0.069	0.929 ± 0.03	0.89 ± 0.023	0.855 ± 0.034	0.768 ± 0.039	0.678 ± 0.092	0.337 ± 0.16	0.993 ± 0.019	0.952 ± 0.056	0.938 ± 0.055	0.891 ± 0.094	0.842 ± 0.14	0.36 ± 0.24	1.05 ± 0.078	0.954 ± 0.065	0.988 ± 0.066	0.906 ± 0.029	0.673 ± 0.078	0.0729 ± 0.13	0.932 ± 0.013	0.888 ± 0.0098	0.867 ± 0.023	0.752 ± 0.083	0.648 ± 0.11	0.446 ± 0.21	0.988 ± 0.013	0.915 ± 0.063	1 ± 0.077	0.87 ± 0.072	0.404 ± 0.078	-0.107 ± 0.21
NC(=O)Nc1cc(-c2cccc(F)c2)sc1C(=O)N[C@H]1CCCNC1 [AZD-7762]	1.05 ± 0.054	0.874 ± 0.14	0.634 ± 0.15	0.262 ± 0.15	-0.0616 ± 0.12	-0.418 ± 0.099	0.41 ± 0.2	0.0861 ± 0.15	-0.0107 ± 0.13	-0.108 ± 0.14	-0.187 ± 0.13	-0.289 ± 0.13	0.878 ± 0.077	0.749 ± 0.11	0.647 ± 0.1	0.43 ± 0.097	0.188 ± 0.052	-0.177 ± 0.082	0.27 ± 0.063	0.176 ± 0.061	0.0985 ± 0.048	-0.000407 ± 0.031	-0.103 ± 0.015	-0.276 ± 0.042	0.7 ± 0.19	0.387 ± 0.1	0.196 ± 0.21	-0.0971 ± 0.13	-0.246 ± 0.14	-0.29 ± 0.16	0.0117 ± 0.2	-0.11 ± 0.19	-0.168 ± 0.17	-0.273 ± 0.16	-0.301 ± 0.14	-0.341 ± 0.13
COc1ccc(-c2ccc3c(N4CCOC[C@@H]4C)nc(N4CCOC[C@@H]4C)nc3n2)cc1CO [AZD-8055]	0.3 ± 0.14	0.179 ± 0.12	0.0816 ± 0.063	0.0556 ± 0.071	-0.00646 ± 0.086	-0.306 ± 0.36	0.255 ± 0.041	0.187 ± 0.031	0.176 ± 0.022	0.16 ± 0.023	0.111 ± 0.073	-0.22 ± 0.29	0.494 ± 0.1	0.296 ± 0.088	0.205 ± 0.048	0.175 ± 0.027	0.146 ± 0.012	-0.102 ± 0.39	0.0296 ± 0.035	-0.00352 ± 0.044	-0.0152 ± 0.064	-0.00932 ± 0.072	-0.0344 ± 0.067	-0.216 ± 0.23	0.484 ± 0.046	0.317 ± 0.048	0.245 ± 0.0043	0.224 ± 0.015	0.146 ± 0.099	-0.0657 ± 0.25	-0.0402 ± 0.13	-0.0898 ± 0.17	-0.0997 ± 0.15	-0.12 ± 0.1	-0.137 ± 0.12	-0.363 ± 0.15
Cc1cc(C(=O)NOCCO)c(Nc2ccc(I)cc2F)n(C)c1=O [AZD-8330]	0.685 ± 0.018	0.741 ± 0.034	0.748 ± 0.0083	0.739 ± 0.025	0.786 ± 0.01	0.803 ± 0.022	0.244 ± 0.066	0.212 ± 0.072	0.217 ± 0.11	0.213 ± 0.11	0.217 ± 0.1	0.197 ± 0.11	0.0964 ± 0.11	0.0999 ± 0.1	0.113 ± 0.08	0.131 ± 0.068	0.142 ± 0.075	0.143 ± 0.1	0.331 ± 0.077	0.33 ± 0.043	0.342 ± 0.041	0.41 ± 0.049	0.405 ± 0.029	0.465 ± 0.025	0.0852 ± 0.054	0.0627 ± 0.033	0.0584 ± 0.026	0.0698 ± 0.013	0.0774 ± 0.044	0.0933 ± 0.0085	0.497 ± 0.12	0.64 ± 0.045	0.708 ± 0.055	0.76 ± 0.064	0.778 ± 0.048	0.814 ± 0.076
CC[C@@H]1C(=O)N(C)c2cnc(Nc3ccc(C(=O)NC4CCN(C)CC4)cc3OC)nc2N1C1CCCC1 [BI-2536]	-0.177 ± 0.15	-0.203 ± 0.19	-0.198 ± 0.17	-0.163 ± 0.16	-0.143 ± 0.14	-0.137 ± 0.17	-0.128 ± 0.11	-0.125 ± 0.14	-0.0972 ± 0.11	-0.0687 ± 0.11	-0.0582 ± 0.1	-0.125 ± 0.16	-0.0473 ± 0.13	-0.0192 ± 0.14	0.00696 ± 0.13	1.1e-05 ± 0.11	-0.0132 ± 0.098	0.00366 ± 0.082	0.101 ± 0.044	0.0593 ± 0.017	0.0551 ± 0.044	0.0492 ± 0.066	0.0223 ± 0.047	-0.191 ± 0.038	0.0155 ± 0.14	0.00874 ± 0.1	0.00566 ± 0.14	0.0242 ± 0.14	0.0274 ± 0.12	-0.0537 ± 0.25	-0.136 ± 0.22	-0.151 ± 0.18	-0.109 ± 0.23	-0.15 ± 0.23	-0.158 ± 0.2	-0.208 ± 0.25
O=C(Nc1cccc(Nc2ncc(Br)c(NCCc3cnc[nH]3)n2)c1)N1CCCC1 [BX-912]	0.8964 ± 0.0089	0.943 ± 0.034	0.936 ± 0.034	0.939 ± 0.032	0.839 ± 0.12	0.355 ± 0.13	0.967 ± 0.021	0.906 ± 0.045	0.756 ± 0.16	0.375 ± 0.042	0.143 ± 0.076	-0.103 ± 0.14	0.95 ± 0.0022	0.92 ± 0.062	0.648 ± 0.3	0.206 ± 0.067	0.172 ± 0.068	0.0883 ± 0.057	0.816 ± 0.053	0.866 ± 0.058	0.731 ± 0.17	0.459 ± 0.1	0.293 ± 0.063	0.0193 ± 0.03	0.903 ± 0.0098	0.901 ± 0.083	0.694 ± 0.32	0.404 ± 0.23	0.194 ± 0.14	-0.0228 ± 0.27	0.724 ± 0.1	0.719 ± 0.089	0.175 ± 0.19	-0.0702 ± 0.08	-0.0412 ± 0.053	-0.0312 ± 0.089
